Experimental data as given in patent US8093406B2, “Cyclic sulfones with aminobenzyl substitution useful as BACE inhibitors” (Novartis AG, priority 2008, dated 2012).
pIC50: −log10 of the molar value. Counter-ions that a name gives are not always drawn. Like-named read-outs stand apart in the source and are kept apart here.

Biological target: T1, Human BACE (Homo sapiens, UniProt P56817)
T1 construct: Recombinant BACE (extracellular domain, expressed in baculovirus and purified using standard methods); made in house
T1 sequence (P56817 46-457 limits assumed): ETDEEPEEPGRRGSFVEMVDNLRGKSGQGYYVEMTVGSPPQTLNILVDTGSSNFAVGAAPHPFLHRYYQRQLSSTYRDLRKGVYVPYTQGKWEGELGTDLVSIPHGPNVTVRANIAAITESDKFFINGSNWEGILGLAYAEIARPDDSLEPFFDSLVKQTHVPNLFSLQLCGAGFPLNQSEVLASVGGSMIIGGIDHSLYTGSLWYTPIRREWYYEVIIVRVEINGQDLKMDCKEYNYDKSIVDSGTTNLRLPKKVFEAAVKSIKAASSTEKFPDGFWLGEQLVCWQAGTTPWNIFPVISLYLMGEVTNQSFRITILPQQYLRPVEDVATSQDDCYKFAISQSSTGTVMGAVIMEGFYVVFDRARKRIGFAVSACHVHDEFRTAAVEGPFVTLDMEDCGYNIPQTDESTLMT
Assay: Test 1: Inhibition of Human BACE
Format: biochemical
Description: Test 1: Inhibition of Human BACE
Recombinant BACE (extracellular domain, expressed in baculovirus and purified using standard methods) at 0.1 to 10 nM concentrations is incubated with the test compound at various concentrations for 1 hour at room temperature in 10 to 100 mM acetate buffer, pH 4.5, containing 0.1% CHAPS. […] IC50 values are calculated from percentage of inhibition of BACE-activity as a function of the test compound concentration.

[1] = Test 1, recombinant BACE extracellular domain, acetate buffer pH 4.5, 1 hour incubation at room temperature, fluorescence-quenched APP-derived peptide substrate, read-out: Bace IC50

CC(C)(C)c1cccc(CN[C@H]2CS(=O)(=O)C[C@@H](Cc3cc(F)c(N)c(N4CCC4=O)c3)[C@@H]2O)c1 (relative stereo) [Example 5, 1 {2-Amino-5-[(3S*,4S*,5R*)-5-(3-tert-butyl-benzylamino)-4-hydroxy-1,1-dioxo-hexahydro-1lambda*6*-thiopyran-3-ylmethyl]-3-fluoro-phenyl}-azetidin-2-one]
pIC50 [1]: 5.33

C[Si](C)(C)c1cccc(CNC2C[S+]([O-])CC(Cc3cc(F)c(N)c(OCC(F)(F)F)c3)C2O)c1 (stereo not drawn) [Example 63]
pIC50 [1]: 6.93

CC(C)(C)c1cccc(CNC2CS(=O)(=O)CC(Cc3ccc(N)c(C(=O)NCC(F)(F)F)c3)C2O)c1 (stereo not drawn) [Example 23]
pIC50 [1]: 6.76

CCNCC(=O)Nc1c(F)cc(C[C@@H]2CS(=O)(=O)C[C@H](NCc3cccc(C(C)(C)C)c3)[C@H]2O)cc1CC [Example 8, N-{4-[(3S,4S,5R)-5-(3-tert-Butyl-benzylamino)-4-hydroxy-1,1-dioxo-hexahydro-1lambda*6*-thiopyran-3-ylmethyl]-2-ethyl-6-fluoro-phenyl}-2-ethylamino-acetamide dihydrochloride]
pIC50 [1]: 7.38

CC(C)(C)c1cccc(CN[C@H]2CS(=O)(=O)C[C@@H](Cc3cc(F)c(NC(=O)CN4CCCCC4)c(OCC(F)(F)F)c3)[C@@H]2O)c1 [Example 29]
pIC50 [1]: 8.30

C[Si](C)(C)c1cccc(CN[C@H]2CS(=O)(=O)C[C@@H](Cc3cc(F)c(N)c(OC(C(F)(F)F)C(F)(F)F)c3)[C@@H]2O)c1 [Example 31, (3S,4S,5R)-3-[4-Amino-3-fluoro-5-(2,2,2-trifluoro-1-trifluoromethyl-ethoxy)-benzyl]-1,1-dioxo-5-(3-trimethylsilanyl-benzylamino)-hexahydro-1lambda*6*-thiopyran-4-ol]
pIC50 [1]: 7.66

CCCCNC(=O)c1cc(C[C@@H]2CS(=O)(=O)C[C@H](NCc3cccc(C(C)(C)C)c3)[C@H]2O)ccc1N (racemic) [Example 18, 2-Amino-N-butyl-5-[3S*,4S*,5R*)-5-(3-tert-butyl-benzylamino)-4-hydroxy-1,1-dioxo-hexahydro-1lambda*6*-thiopyran-3-ylmethyl]-benzamide]
pIC50 [1]: 7.42

CCCNC(=O)c1cc(CC2CS(=O)(=O)CC(NCc3cccc(C(C)(C)C)c3)C2O)ccc1N (stereo not drawn) [Example 20]
pIC50 [1]: 6.82

CNCC(=O)Nc1c(F)cc(C[C@@H]2CS(=O)(=O)C[C@H](NCc3cccc(C(C)(C)C)c3)[C@H]2O)cc1Cl [Example 13]
pIC50 [1]: 7.55

CC(C)(C)c1cccc(CN[C@H]2CS(=O)(=O)C[C@@H](Cc3cc(F)c(NC(=O)CN4CCCCC4)c(Cl)c3)[C@@H]2O)c1 [Example 16]
pIC50 [1]: 7.47

COC[C@@H](Oc1cc(C[C@@H]2C[S@@+]([O-])C[C@H](NCc3cc(OC)cc(C(C)C)c3)[C@H]2O)cc(F)c1N)C(F)(F)F [Example 48, (1R,3S,4S,5R)-3-[4-Amino-3-fluoro-5-((R)-2,2,2-trifluoro-1-methoxymethyl-ethoxy)-benzyl]-5-(3-isopropyl-5-methoxy-benzylamino)-1-oxo-tetrahydro-thiopyran-4-ol]
pIC50 [1]: 7.59

CC(C)(C)c1cccc(CN[C@H]2CS(=O)(=O)C[C@@H](Cc3cc(F)c(NC(=O)CNC4CC4)c(Cl)c3)[C@@H]2O)c1 [Example 14, N-{4-[(3S,4S,5R)-5-(3-tert-butyl-benzylamino)-4-hydroxy-1,1-dioxo-hexa-hydro-1lambda*6*-thiopyran-3-ylmethyl]-2-chloro-6-fluoro-phenyl}-2-cyclopropylamino-acetamide]
pIC50 [1]: 7.66

CCNCC(=O)Nc1c(F)cc(C[C@@H]2CS(=O)(=O)C[C@H](NCc3cccc(C(C)(C)C)c3)[C@H]2O)cc1Cl [Example 12]
pIC50 [1]: 7.70

CN(C)CCNc1ccc(C[C@@H]2CS(=O)(=O)C[C@H](NCc3cccc(C(C)(C)C)c3)[C@H]2O)cc1F (racemic) [Example 7, (3R*,4S*,5S*)-3-(3-tert-Butyl-benzylamino)-5-[4A2-dimethylamino-ethyl-amino)-3-fluoro-benzyl]-1,1-dioxo-hexahydro-1lambda*6*-thiopyran-4-ol]
pIC50 [1]: 5.08

CC(C)(C)c1cccc(CN[C@H]2CS(=O)(=O)C[C@@H](Cc3cc(F)c(NC(=O)CN4CCC4)c(OCC(F)(F)F)c3)[C@@H]2O)c1 [Example 28]
pIC50 [1]: 8.15

CC(C)(C)c1cccc(CN[C@H]2CS(=O)(=O)C[C@@H](Cc3cc(F)c(N)c(N4CCCC4=O)c3)[C@@H]2O)c1 (relative stereo) [Example 4, 1-{2-Amino-5-[(3S*,4S*,5R*)-5-(3-tert-butyl-benzylamino)-4-hydroxy-1,1-dioxo-hexahydro-1lambda*6*-thiopyran-3-ylmethyl]-3-fluoro-phenyl}-pyrrolidin-2-one di-trifluoroacetate]
pIC50 [1]: 6.49

CC(C)(C)c1cccc(CNC2CS(=O)(=O)CC(Cc3ccc(N)c(C(=O)NCCF)c3)C2O)c1 (stereo not drawn) [Example 22]
pIC50 [1]: 7.34

CC(C)(C)NCC(=O)Nc1c(F)cc(C[C@@H]2CS(=O)(=O)C[C@H](NCc3cccc(C(C)(C)C)c3)[C@H]2O)cc1Cl [Example 15]
pIC50 [1]: 7.30

CN(C)CC(=O)Nc1c(F)cc(C[C@@H]2CS(=O)(=O)C[C@H](NCc3cccc(C(C)(C)C)c3)[C@H]2O)cc1Cl [Example 11, N-{4-[(3S,4S,5R)-5-(3-tert-Butyl-benzylamino)-4-hydroxy-1,1-dioxo-hexa-hydro-1lambda*6*-thiopyran-3-ylmethyl]-2-chloro-6-fluoro-phenyl}-2-dimethylamino-acetamide dihydrochloride]
pIC50 [1]: 7.13

CC(C)(C)c1cccc(CN[C@H]2CS(=O)(=O)C[C@@H](Cc3cc(F)c(N)c(O[C@H](CN)C(F)(F)F)c3)[C@@H]2O)c1 [Example 39, (3S,4S,5R)-3-[4-Amino-3-((R)-1-aminomethyl-2,2,2-trifluoro-ethoxy)-5-fluoro-benzyl]-5-(3-tert-butyl-benzylamino)-1,1-dioxo-hexahydro-1lambda*6*-thiopyran-4-ol]
pIC50 [1]: 7.15

CCNCc1cc(C[C@@H]2CS(=O)(=O)C[C@H](NCc3cccc(C(C)(C)C)c3)[C@H]2O)cc(F)c1N (relative stereo) [Example 3, (3S*,4S*,5R*)-3-(4-Amino-3-ethylaminomethyl-5-fluoro-benzyl)-5-(3-tert-butyl-benzylamino)-1,1-dioxo-hexahydro-1lambda*6*-thiopyran-4-ol hydrochloride]
pIC50 [1]: 5.94

COC[C@@H](Oc1cc(C[C@@H]2C[S@@+]([O-])C[C@H](NCc3cccc(C(C)(C)C(F)(F)F)c3)[C@H]2O)cc(F)c1N)C(F)(F)F [Example 44, (1R,3S,4S,5R)-3-[4-Amino-3-fluoro-5-((R)-2,2,2-trifluoro-1-methoxymethyl-ethoxy)-benzyl]-1-oxo-5-[3-(2,2,2-trifluoro-1,1-dimethyl-ethyl)-benzylamino]-tetrahydro-thiopyran-4-ol]
pIC50 [1]: 7.57

COC[C@@H](Oc1cc(C[C@@H]2C[S@@+]([O-])C[C@H](NCc3cccc(C(C)(C)C)c3)C2=O)cc(F)c1N)C(F)(F)F [Example 64, (1R,3S,5R)-3-[4-Amino-3-fluoro-5-((R)-2,2,2-trifluoro-1-methoxymethyl-ethoxy)-benzyl]-5-(3-tert-butyl-benzylamino)-1-oxo-tetrahydro-thiopyran-4-one trifluoroacetate]
pIC50: 8.40

CC(C)(C)c1cccc(CN[C@H]2CS(=O)(=O)C[C@@H](Cc3cc(F)c(N)c(O[C@H](CO)C(F)(F)F)c3)[C@@H]2O)c1 [Example 38, (3S,4S,5R)-3-[4-Amino-3-fluoro-5-((R)-2,2,2-trifluoro-1-hydroxymethyl-ethoxy)-benzyl]-5-(3-tert-butyl-benzylamino)-1,1-dioxo-hexahydro-1lambda*6*-thio-pyran-4-ol]
pIC50 [1]: 8.52

COC[C@@H](Oc1cc(C[C@@H]2C[S@@+]([O-])C[C@H](NCc3cc(OC)cc(C(C)(C)C)c3)[C@H]2O)cc(F)c1N)C(F)(F)F [Example 49, (1R,3S,4S,5R)-3-[4-Amino-3-fluoro-5-((R)-2,2,2-trifluoro-1-methoxymethyl-ethoxy)-benzyl]-5-(3-tert-butyl-5-methoxy-benzylamino)-1-oxo-tetrahydro-thiopyran-4-ol dihydrochloride]
pIC50 [1]: 7.82

COC[C@@H](Oc1cc(C[C@@H]2CSC[C@H](NCc3cccc(C(C)(C)C)c3)[C@H]2O)cc(F)c1N)C(F)(F)F [Example 40, (3S,4S,5R)-3-[4-Amino-3-fluoro-5-((R)-2,2,2-trifluoro-1-methoxymethyl-ethoxy)-benzyl]-5-(3-tert-butyl-benzylamino)-tetrahydro-thiopyran-4-ol hydrochloride]
pIC50 [1]: 6.61

CCc1cc(C[C@@H]2CS(=O)(=O)C[C@H](NCc3cccc(C(C)(C)C)c3)[C@H]2O)cc(F)c1NC(=O)COC [Example 10, N-{4-[(3S,4S,5R)-5-(3-tert-Butyl-benzylamino)-4-hydroxy-1,1-dioxo-hexa-hydro-1lambda*6*-thiopyran-3-ylmethyl]-2-ethyl-6-fluoro-phenyl}-2-methoxy-acetamide hydrochloride]
pIC50 [1]: 7.32

CC(C)(C)c1cccc(CNC2CS(=O)(=O)CC(Cc3ccc(N)c(C(=O)NCC4CC4)c3)C2O)c1 (stereo not drawn) [Example 21]
pIC50 [1]: 8.10

COC[C@@H](Oc1cc(C[C@@H]2C[S@@+]([O-])C[C@H](NCc3ccc4c(c3)OC(C)(C)C4)[C@H]2O)cc(F)c1N)C(F)(F)F [Example 50, (1R,3S,4S,5R)-3-[4-Amino-3-fluoro-5-((R)-2,2,2-trifluoro-1-methoxymethyl-ethoxy)-benzyl]-5-[(2,2-dimethyl-2,3-dihydro-benzofuran-6-ylmethyl)-amino]-1-oxo-tetrahydro-thiopyran-4-ol dihydrochloride]
pIC50 [1]: 5.62

CC(C)(C)c1cccc(CN[C@H]2CS(=O)(=O)C[C@@H](Cc3cc(F)c(NCCNC4CC4)c(Cl)c3)[C@@H]2O)c1 [Example 17, (3R,4S,5S)-3-(3-tert-Butyl-benzylamino)-5-[3-chloro-4-(2-cyclopropyl-amino-ethylamino)-5-fluoro-benzyl]-1,1-dioxo-hexahydro-1lambda*6*-thiopyran-4-ol hydrochloride]
pIC50 [1]: 5.75
